Structures are written as SMILES. Bounds are passed on as bounds.

The record followed here is a melting point compilation (Tetko et al.; mined from patent text by program, amines drawn as free bases though some values may be those of a salt).

For orientation: melting point means the temperature of the solid-liquid transition.

The compound `COc1nc(Cl)cnc1N(C(=O)OCC(C)C)S(=O)(=O)c1ccccc1-c1ccc(O)cc1` showed a melting point of 175 to 177 °C.
The figure for `COC(=O)C1COc2ccccc2C1` (stereo unspecified) is 83 to 84 °C; for `Cc1c(C(=O)c2sc(Nc3ccc(N4CCOCC4)cc3)nc2N)ncn1C` it is above 300 °C; for `CNC(=O)C(Cc1ccc2ccccc2c1)NC(=O)OC(C)(C)C` (stereo unspecified) it is 177 to 179 °C.
To `O=C(O)C1=CCN(c2ncccc2F)CC1` belongs 119 to 120 °C.
Turning to `O=c1oc(-c2ccc(F)cc2)nc2cccc(F)c12`, the melting point was in the range of 189 to 193 °C.
The figure for `CCOC(=O)c1cnc2sc3c(n12)CCCCC3` is 73 to 74 °C.
The figure for `COc1cc(C2CCN(CC(N)=O)CC2)ccc1Nc1ncc2ccc(-c3ccccc3N(C)S(C)(=O)=O)n2n1` is 103 to 112 °C; for `CCOC(=O)c1cc(CC)sc1Nc1c([N+](=O)[O-])cccc1C(F)(F)F` it is 72 to 73 °C; for `Cc1cc2c(s1)C(C(=O)Nc1ccccc1)C(=O)N(C)S2(=O)=O` (stereo unspecified) it is 182 to 184 °C.
In turn, `COc1ccccc1-c1cc2c(c(Br)cn2C)c2c1C(=O)NC2=O` registered a melting point of 216 to 220 °C.
In turn, `O=c1ccn(-c2ccncc2)nc1-c1ccnn1-c1ccccc1` displayed a melting point of 202 to 203 °C.
Regarding `CCCCC1(c2ccc(-c3ccccc3)cc2)CC(O)=C(SCCc2ccccc2)C(=O)O1` (stereo unspecified), the melting point was 100 to 104 °C.
The figure for `O=C(Nc1ccc(I)cc1)OCc1ccccc1` is 132 to 134 °C; for `CCCc1nc2c(c(C)c(C)n3nnnc23)n1CC(C)(C)NC(C)=O` it is 237 to 240 °C; for `Nc1cccc(C(=O)O)c1S(=O)(=O)CCO` it is 75 to 77 °C.
The figure for `COc1cc(OC)nc(NC(=O)NS(=O)(=O)c2ncccc2C(CCl)OC(C)=O)n1` (stereo unspecified) is 159 to 161 °C.
The figure for `COC(=O)c1c(S(C)(=O)=O)ccc(C(=O)O)c1Cl` is 160 to 162 °C; for `COC(=O)c1ccc(O)c(OC2CCCC2)c1` it is 73 to 75 °C.
Compound `O=C(CCl)NC(c1ccccc1)C(O)c1ccccc1` (stereo unspecified) registered a melting point of 166 to 169 °C.
To `CCCCS(=O)(=O)Nc1ccc(Oc2ccc3cccnc3c2)cc1` belongs 168 °C.
The figure for `O=C(C=Cc1ccc(F)cc1)C(=O)Nc1ccc(C(F)(F)F)cc1` is 200 to 201 °C; for `O=C(NCCc1cccs1)c1cc(Cl)cc(Cl)c1` it is 100 to 102 °C; for `N#CCCN1CCc2c3n(c4ccccc24)C(=O)CCC31` (stereo unspecified) it is 156 to 157 °C.
The figure for `NC(=O)COc1cccc(NC(=O)c2cc(-c3cccc(F)c3)ccc2F)c1` is 203 to 206 °C; for `Cn1cc(-c2cc(-c3ccc(N)nc3)ccn2)n(-c2ccc(C(C)(C)C#N)cc2)c1=O` it is 252 °C.
`CCCCOc1ccc(S(=O)(=O)C2(C(=O)O)CCN(Cc3ccc(C)cc3)CC2)cc1` displayed a melting point of 137 °C.
The figure for `CC(C)(C(=O)c1ccc(N2CCOCC2)cc1)N1CCOCC1` is 114 to 116 °C.
The figure for `CCOC(=O)c1cn(N(C)C=O)c2c(F)c(N3CCN(C)CC3)c(F)cc2c1=O` is 180 °C; for `CC(C)(C)c1cc(-c2nn(CCC(N)=O)c3ncccc23)cc(C(C)(C)C)c1O` it is 154 to 157 °C.
The figure for `Cc1c(Cl)c(C(F)(F)F)nn1-c1cc(OS(C)(=O)=O)c(Cl)cc1F` is 72 to 74.5 °C; for `CCN1CCc2ccc(Nc3ncc(Cl)c(NCC(C)(C)NS(C)(=O)=O)n3)cc2CC1` it is 118 to 121 °C.
For the compound `O=S1(=O)NCN(C2CC2)c2ccc(Cl)cc21`, the melting point was 159 to 161 °C.
The figure for `COC(=O)C1C=CCN2C(=O)C(C)(CCI)C(=O)N12` (stereo unspecified) is 86 to 87 °C; for `Cc1nnc(-c2ccc3occ(-c4ccc(S(C)(=O)=O)c(Cl)c4)c3c2)o1` it is 204 to 205 °C.
With `OCc1cn(Cc2ccc(Cl)cc2)nc1CN1CCC(c2ccccc2)(c2ccccc2)CC1`, the melting point was 104 to 105 °C.
The figure for `CCOC(=O)/C(=C\Nc1cc(OC)ccc1OC)c1ccccc1` is 93 to 94 °C; for `CC1(C)Oc2ccc(C#N)cc2C(NC(=O)C(N)c2ccccc2)C1O` (stereo unspecified) it is 109 to 111 °C.
The figure for `CC(Cl)C(=O)c1ccc(OCCCN2C(=O)c3ccccc3C2=O)cc1` (stereo unspecified) is 137 to 138 °C; for `Cc1ccc(C(=O)c2cc(-c3ccc(Cl)cc3)c(N3CCOCC3)s2)cc1` it is 190 °C.
`Cc1nn(-c2ccc(F)cc2)cc1C(=O)Nc1ccc(CC(C)C)c(C#N)c1` showed a melting point of 178 to 179 °C.
The figure for `CCOC(=O)C(=NOCC(C)C)c1csc(N)n1` is 122 to 124 °C.
To `CC(C)(C)OC(=O)COc1coc(CO)cc1=O` belongs 90 to 92 °C.
To `OC(C#Cc1ccncc1)c1ccccc1` (stereo unspecified) belongs 93 to 96 °C; to `COC(=O)COc1ncccc1Oc1cc(NC(=O)CC(=O)C(F)(F)F)c(F)cc1Cl`, 159 °C.
Compound `CCCCCCCCCCCC1=NCCO1` yielded a melting point of 71 to 74 °C.
To `CC(=O)OCC1OC(O)(c2ccc(Cl)cc2)C(OC(C)=O)C(OC(C)=O)C1OC(C)=O` (stereo unspecified) belongs 124 °C; to `O=C(Nc1ccccc1C(=O)O)OCc1ccccn1`, 172 to 175 °C.
The figure for `COc1ccc2c(=O)c(C(N)=O)cn(C)c2c1` is 304 to 306 °C; for `CCCCC1=NC2(CCCC2)C(=O)N1Cc1ccc(-c2ccccc2S(=O)(=O)Nc2onc(C)c2C)c(CC(C)C)c1` it is 58 to 61 °C; for `CN1CCc2c(Cl)csc2C(c2ccccc2)C1` (stereo unspecified) it is 67 °C.
To `CC(C)Cn1nc(-c2ccc(F)c(F)c2)cc(COS(C)(=O)=O)c1=O` belongs 113 °C; to `O=C(O)c1cc(=O)cc(-c2ccccc2O)o1`, 213 to 215 °C.
For `NCCc1c[nH]c2ccc(Cc3nnn(Cc4ccccc4)n3)cc12`, the melting point lay in the range of 181 to 183 °C.
To `O=C1N[C@H](Cc2ccc(C(F)(F)F)o2)[C@H](c2ccc(F)cc2)O1` (racemic) belongs 177 to 179 °C.
The figure for `N#Cc1ccc(Nn2cnnc2)cc1` is 200 to 204 °C.
Take `CCCc1c(OCCCc2ccc(O)c(O)c2)ccc(C(=O)O)c1O`: the melting point is 194 to 195 °C.
The figure for `CC(C)(C)OC(=O)N1CCN(Cc2ccc(Cl)c(Cl)c2)CC1` is 75 to 76 °C; for `CCS(=O)(=O)NC(=O)CCCCC1CCSS1` (stereo unspecified) it is 98 to 100 °C.
`O=c1c(CCCc2ccncc2)cc2cccnc2n1-c1ccc2nsnc2c1` showed a melting point of 194 to 196 °C.
The figure for `OCC1OC(n2cnc3c(Nn4ccc5ccccc54)ncnc32)C(O)C1O` (stereo unspecified) is 155 °C; for `C[C@@H](n1cnc2cc(N3CCN(C)CC3)ccc2c1=O)[C@](O)(Cn1cncn1)c1ccc(F)cc1F` it is 121 to 131 °C; for `COc1ccc(CC(=O)NC(=NOCC2CC2)c2c(F)cccc2C(F)(F)F)cc1` it is 75 to 76 °C.
To `CCOCCNC(=O)c1c(Cl)cccc1[Si](C)(C)C` belongs 71 to 73 °C; to `CC(=O)OC1CSC(Oc2cnccc2-c2ccncc2)C(OC(C)=O)C1OC(C)=O` (stereo unspecified), 185 °C.
The compound `CC(C)(C)OC(=O)N1CCC(C(=O)Nc2ccccc2Oc2ccc(Cl)cc2)CC1` returned a melting point of 97 to 99 °C.
The figure for `CC(=O)NNCc1c[nH]c(=S)n1[C@H]1CCc2c(F)cc(F)cc2C1` is 144 to 153 °C.
The figure for `COc1ccc(C2(C#N)CCC(NS(C)(=O)=O)CC2)c2c1oc1ccccc12` (stereo unspecified) is 176 to 178 °C; for `Cc1ccc(C(=O)n2c3c(c4ccccc42)CC(C(=O)O)(C(=O)O)CC3)cc1` it is 190 to 195 °C; for `CCC1=c2ccccc2=NC1=O` it is 100 to 101 °C.
The figure for `Cc1ncc([N+](=O)[O-])n1CCn1c(=O)[nH]c2ccccc2c1=O` is 261 to 264 °C; for `Cc1c(C)c2c(c(C)c1N)C(c1cccnc1)C(C)(C)O2` (stereo unspecified) it is 130 to 131 °C.
For the compound `c1ccc(Sc2c[nH]c3ccccc23)cc1`, the melting point lay within 149 to 151 °C.
To `N#Cc1ccccc1-c1ccc(OCC(=O)C2CC2)cc1` belongs 82 to 84 °C; to `Cc1ccc(-c2nc(Cc3cc4cc(CCl)ccc4o3)c(C)o2)cc1`, 145 to 146 °C; to `CCOC(=O)CC(=O)Cc1ccc(OC)c([N+](=O)[O-])c1`, 87 to 88 °C.
As for `CCc1nc(/C=C/c2cn(-c3ccccc3)nc2O)c(C)s1`, the melting point lay within 184 to 186 °C.
To `COc1cc(OCC(CO)CO)c(C=O)cc1-c1cccs1` belongs 144 to 145 °C.
`Oc1ccc(-c2ccc3c(Cl)c(O)ccc3n2)cc1` displayed a melting point of 215 to 216 °C.
The figure for `Cc1nc2scc(C)n2c(=O)c1CCN1CCC(C(=O)c2ccc(F)cc2)CC1` is 200 °C; for `O=C(O)C1=Cc2cc(OC(F)(F)F)ccc2NC1C(F)(F)F` (stereo unspecified) it is 128 to 129 °C.
The figure for `CCCc1nc2c(N)nc(C)c(C)c2n1CCCCCS(=O)(=O)c1ccc(Cl)cc1` is 147 to 149 °C; for `COc1cc(C)c2c(c1OC)CCC1C(=O)N(C)C(=O)C21` (stereo unspecified) it is 167 to 169 °C.
To `Cc1cc(C=O)ccc1C(=O)O` belongs 196 to 198 °C; to `CNC(=S)N(C)NC(=O)c1cccc(F)c1`, 202 to 205 °C.
The compound `O=C1c2ccccc2-c2cc(Nc3nc(Nc4ccc5c(c4)-c4ccccc4C5=O)nc(-c4cccn4Cc4ccccc4)n3)ccc21` registered a melting point of 140 to 142 °C.
To `Oc1nc2ccc3cn[nH]c3c2nc1O` belongs above 300 °C.
To `COc1ncc([N+](=O)[O-])cc1C` belongs 95 to 96.5 °C; to `Cc1oc(-c2ccccc2)nc1CCOc1ccc(Cn2cc(CCC(=O)O)c(-c3ccccc3)n2)cc1`, 142 to 143 °C; to `CCCCSc1nsnc1O`, 72 to 72.5 °C.
The compound `Cc1c(CNCC2CCOCC2)[nH]c2c(C)c(NC(=O)c3ccc(OC[C@@H]4CCCO4)cc3)ccc12` returned a melting point of 184 to 185 °C.
